Assay results from paper PMC9601927 (Foods, 2022).

Tested on: Caco-2 cell monolayer
Assay: ANC transmembrane transport across Caco-2 cell monolayer (Transwell, HPLC)
Type: in vitro ADME
Details: for Transport Efficiency A→B (%) with FA-g-CS Co-Treatment: with 5 × 10^−5 mg/mL FA-g-CS
Protocol: In this work, we utilized and slightly modified a procedure from Zou et al. to perform ANC transport studies. Firstly, ANC commercial powder was pre-dissolved in ultra-pure water and phosphate-buffered solution (PBS, pH7.4) was used for FA-g-CS dissolving. Then, pre-warmed phosphate-buffered saline (PBS) was used to wash and equilibrate the Transwell. Subsequently, the transport buffer containing ANC was added to the basolateral (1.5 mL) or the apical (0.5 mL) side of the inserts, while the corresponding volume of transport buffer was added to the receiving container. Samples measuring 50 uL were taken after 1, 2, 3, and 4 h incubation, and the same amount of pre-warmed PBS was replenished immediately. The samples were treated with HCl and frozen until HPLC analysis. The ANC-absorption-enhancing studies with FA-g-CS across Caco-2 cells were conducted using a transport buffer containing FA-g-CS+ANC instead of ANC alone.
Transport efficiency (A→B (%)) was calculated according to the following formula: (concentrations of the compound at basolateral side overtime)/(concentrations of the compound at the apical side at zero hours) × 100. The apparent permeability coefficient (Papp) was defined as follows: Papp = (dQ/dt)(1/[AC0]); here, A represents the surface area of the Transwell, C0 represents the compound concentration added in the apical side, and the transport rate of the compound over time is denoted by dQ/dt.

OC[C@H]1O[C@@H](Oc2cc3c(O)cc(O)cc3[o+]c2-c2ccc(O)c(O)c2)[C@H](O)[C@@H](O)[C@@H]1O [ANC, Cyanidin-3-glucoside]
Transport Efficiency A→B (%) with FA-g-CS Co-Treatment (ANC 0.05 ×10^−3 mg/mL, 4 h): 1% | Transport Efficiency A→B (%) without FA-g-CS (ANC 0.05 ×10^−3 mg/mL, 4 h): 0.81% | Transport Efficiency A→B (%) with FA-g-CS Co-Treatment (ANC 0.10 ×10^−3 mg/mL, 4 h): 2.1% | Transport Efficiency A→B (%) without FA-g-CS (ANC 0.10 ×10^−3 mg/mL, 4 h): 1.15% | Transport Efficiency A→B (%) with FA-g-CS Co-Treatment (ANC 0.15 ×10^−3 mg/mL, 4 h): 2.3% | Transport Efficiency A→B (%) without FA-g-CS (ANC 0.15 ×10^−3 mg/mL, 4 h): 1.18% | Transport Efficiency A→B (%) with FA-g-CS Co-Treatment (ANC 0.20 ×10^−3 mg/mL, 4 h): 1.65% | Transport Efficiency A→B (%) without FA-g-CS (ANC 0.20 ×10^−3 mg/mL, 4 h): 0.96% | Concentrations of ANC at the Basolateral Side (apical ANC 0.05 ×10^−3 mg/mL, in presence of 0.05 × 10^−3 mg/mL FA-g-CS, 1 h): 0.0003 ± 0.00001 b ×10^−3 mg/mL | Concentrations of ANC at the Basolateral Side (apical ANC 0.05 ×10^−3 mg/mL, in presence of 0.05 × 10^−3 mg/mL FA-g-CS, 2 h): 0.0004 ± 0.00001 c ×10^−3 mg/mL | Concentrations of ANC at the Basolateral Side (apical ANC 0.05 ×10^−3 mg/mL, in presence of 0.05 × 10^−3 mg/mL FA-g-CS, 3 h): 0.0004 ± 0.00001 c ×10^−3 mg/mL | Concentrations of ANC at the Basolateral Side (apical ANC 0.05 ×10^−3 mg/mL, in presence of 0.05 × 10^−3 mg/mL FA-g-CS, 4 h): 0.0005 ± 0.00001 d ×10^−3 mg/mL | Concentrations of ANC at the Basolateral Side (apical ANC 0.05 ×10^−3 mg/mL, without FA-g-CS co-treatment, 1 h): 0.0001 ± 0.00001 a ×10^−3 mg/mL | Concentrations of ANC at the Basolateral Side (apical ANC 0.05 ×10^−3 mg/mL, without FA-g-CS co-treatment, 2 h): 0.0003 ± 0.00001 b ×10^−3 mg/mL | Concentrations of ANC at the Basolateral Side (apical ANC 0.05 ×10^−3 mg/mL, without FA-g-CS co-treatment, 3 h): 0.0004 ± 0.00001 c ×10^−3 mg/mL | Concentrations of ANC at the Basolateral Side (apical ANC 0.05 ×10^−3 mg/mL, without FA-g-CS co-treatment, 4 h): 0.0004 ± 0.00001 c ×10^−3 mg/mL | Concentrations of ANC at the Basolateral Side (apical ANC 0.10 ×10^−3 mg/mL, in presence of 0.05 × 10^−3 mg/mL FA-g-CS, 1 h): 0.0010 ± 0.0001 bc ×10^−3 mg/mL | Concentrations of ANC at the Basolateral Side (apical ANC 0.10 ×10^−3 mg/mL, in presence of 0.05 × 10^−3 mg/mL FA-g-CS, 2 h): 0.0010 ± 0.0002 bc ×10^−3 mg/mL | Concentrations of ANC at the Basolateral Side (apical ANC 0.10 ×10^−3 mg/mL, in presence of 0.05 × 10^−3 mg/mL FA-g-CS, 3 h): 0.0019 ± 0.0001 d ×10^−3 mg/mL | Concentrations of ANC at the Basolateral Side (apical ANC 0.10 ×10^−3 mg/mL, in presence of 0.05 × 10^−3 mg/mL FA-g-CS, 4 h): 0.0021 ± 0.0002 d ×10^−3 mg/mL | Concentrations of ANC at the Basolateral Side (apical ANC 0.10 ×10^−3 mg/mL, without FA-g-CS co-treatment, 1 h): 0.0004 ± 0.00002 a ×10^−3 mg/mL | Concentrations of ANC at the Basolateral Side (apical ANC 0.10 ×10^−3 mg/mL, without FA-g-CS co-treatment, 2 h): 0.0008 ± 0.00001 b ×10^−3 mg/mL | Concentrations of ANC at the Basolateral Side (apical ANC 0.10 ×10^−3 mg/mL, without FA-g-CS co-treatment, 3 h): 0.0009 ± 0.00001 b ×10^−3 mg/mL | Concentrations of ANC at the Basolateral Side (apical ANC 0.10 ×10^−3 mg/mL, without FA-g-CS co-treatment, 4 h): 0.0012 ± 0.00002 c ×10^−3 mg/mL | Concentrations of ANC at the Basolateral Side (apical ANC 0.15 ×10^−3 mg/mL, in presence of 0.05 × 10^−3 mg/mL FA-g-CS, 1 h): 0.0017 ± 0.0002 c ×10^−3 mg/mL | Concentrations of ANC at the Basolateral Side (apical ANC 0.15 ×10^−3 mg/mL, in presence of 0.05 × 10^−3 mg/mL FA-g-CS, 2 h): 0.0025 ± 0.0002 d ×10^−3 mg/mL | Concentrations of ANC at the Basolateral Side (apical ANC 0.15 ×10^−3 mg/mL, in presence of 0.05 × 10^−3 mg/mL FA-g-CS, 3 h): 0.0030 ± 0.0001 e ×10^−3 mg/mL | Concentrations of ANC at the Basolateral Side (apical ANC 0.15 ×10^−3 mg/mL, in presence of 0.05 × 10^−3 mg/mL FA-g-CS, 4 h): 0.0035 ± 0.0001 f ×10^−3 mg/mL | Concentrations of ANC at the Basolateral Side (apical ANC 0.15 ×10^−3 mg/mL, without FA-g-CS co-treatment, 1 h): 0.0006 ± 0.00001 a ×10^−3 mg/mL | Concentrations of ANC at the Basolateral Side (apical ANC 0.15 ×10^−3 mg/mL, without FA-g-CS co-treatment, 2 h): 0.0009 ± 0.00002 b ×10^−3 mg/mL | Concentrations of ANC at the Basolateral Side (apical ANC 0.15 ×10^−3 mg/mL, without FA-g-CS co-treatment, 3 h): 0.0010 ± 0.0003 b ×10^−3 mg/mL | Concentrations of ANC at the Basolateral Side (apical ANC 0.15 ×10^−3 mg/mL, without FA-g-CS co-treatment, 4 h): 0.0018 ± 0.00001 c ×10^−3 mg/mL | Concentrations of ANC at the Basolateral Side (apical ANC 0.20 ×10^−3 mg/mL, in presence of 0.05 × 10^−3 mg/mL FA-g-CS, 1 h): 0.0020 ± 0.0001 c ×10^−3 mg/mL | Concentrations of ANC at the Basolateral Side (apical ANC 0.20 ×10^−3 mg/mL, in presence of 0.05 × 10^−3 mg/mL FA-g-CS, 2 h): 0.0023 ± 0.0002 d ×10^−3 mg/mL | Concentrations of ANC at the Basolateral Side (apical ANC 0.20 ×10^−3 mg/mL, in presence of 0.05 × 10^−3 mg/mL FA-g-CS, 3 h): 0.0032 ± 0.0001 e ×10^−3 mg/mL | Concentrations of ANC at the Basolateral Side (apical ANC 0.20 ×10^−3 mg/mL, in presence of 0.05 × 10^−3 mg/mL FA-g-CS, 4 h): 0.0033 ± 0.0001 e ×10^−3 mg/mL | Concentrations of ANC at the Basolateral Side (apical ANC 0.20 ×10^−3 mg/mL, without FA-g-CS co-treatment, 1 h): 0.0007 ± 0.00001 a ×10^−3 mg/mL | Concentrations of ANC at the Basolateral Side (apical ANC 0.20 ×10^−3 mg/mL, without FA-g-CS co-treatment, 2 h): 0.001 ± 0.0002 b ×10^−3 mg/mL | Concentrations of ANC at the Basolateral Side (apical ANC 0.20 ×10^−3 mg/mL, without FA-g-CS co-treatment, 3 h): 0.0012 ± 0.0001 b ×10^−3 mg/mL | Concentrations of ANC at the Basolateral Side (apical ANC 0.20 ×10^−3 mg/mL, without FA-g-CS co-treatment, 4 h): 0.0019 ± 0.0001 c ×10^−3 mg/mL
